{"source": "PubChem BioAssay AID1259407", "about": "(Chemical Carcinogenesis Research Information System (CCRIS), 2018)", "tested_on": "CCRIS mutagenicity, Ames/micronucleus/aberration tests", "assay": "CCRIS mutagenicity studies", "text": "The CCRIS database contains chemical records with carcinogenicity, mutagenicity, tumor promotion, and tumor inhibition test results. It was developed by the National Cancer Institute (NCI). Data are derived from studies cited in primary journals, current awareness tools, NCI reports, and other sources. Test results have been reviewed by experts in carcinogenesis and mutagenesis.\nCCRIS provides historical information from the years 1985 - 2011. It is no longer updated.\nThis is an archive assay for CCRIS mutagenicity studies.", "note": "Active and inactive are the calls of the source. How the calls were made is not given here."}
{"smiles": "CCN(CC)N=O", "values": [{"measurement": "mutagenic call", "setting": "Test System: AMES SALMONELLA TYPHIMURIUM, Strain/Indicator: TA2410, Metabolic Activation: NONE, Method: HOST-MEDIATED", "result": "active; positive"}, {"measurement": "mutagenic call", "setting": "Test System: AMES SALMONELLA TYPHIMURIUM, Strain/Indicator: TA2678, Metabolic Activation: NONE, Method: HOST-MEDIATED", "result": "active; positive"}, {"measurement": "mutagenic call", "setting": "Test System: AMES SALMONELLA TYPHIMURIUM, Strain/Indicator: YG1024, Metabolic Activation: NONE, Method: PREINCUBATION", "result": "inactive; negative"}, {"measurement": "mutagenic call", "setting": "Test System: AMES SALMONELLA TYPHIMURIUM, Strain/Indicator: YG1024, Metabolic Activation: RAT LIVER S-9, AROCLOR, Method: PREINCUBATION", "result": "active; positive"}, {"measurement": "mutagenic call", "setting": "Test System: AMES SALMONELLA TYPHIMURIUM, Strain/Indicator: YG7100, Metabolic Activation: S-9, Method: PREINCUBATION", "result": "inactive; negative"}, {"measurement": "mutagenic call", "setting": "Test System: AMES SALMONELLA TYPHIMURIUM, Strain/Indicator: YG7104, Metabolic Activation: S-9, Method: PREINCUBATION", "result": "active; positive"}, {"measurement": "mutagenic call", "setting": "Test System: AMES SALMONELLA TYPHIMURIUM, Strain/Indicator: YG7104ER, Metabolic Activation: NONE, Method: STANDARD PLATE", "result": "active; positive"}, {"measurement": "mutagenic call", "setting": "Test System: AMES SALMONELLA TYPHIMURIUM, Strain/Indicator: YG7108-2A6-OR, Metabolic Activation: NONE, Method: PREINCUBATION", "result": "active; positive"}, {"measurement": "mutagenic call", "setting": "Test System: AMES SALMONELLA TYPHIMURIUM, Strain/Indicator: YG7108-2A6, Metabolic Activation: NONE, Method: PREINCUBATION", "result": "active; positive"}, {"measurement": "mutagenic call", "setting": "Test System: AMES SALMONELLA TYPHIMURIUM, Strain/Indicator: YG7108-PCW, Metabolic Activation: NONE, Method: PREINCUBATION", "result": "inactive; negative"}, {"measurement": "mutagenic call", "setting": "Test System: AMES SALMONELLA TYPHIMURIUM, Strain/Indicator: YG7108, Metabolic Activation: RAT LIVER S-9, PHENOBARBITAL AND 5,6-BENZOFLAVONE, Method: PREINCUBATION", "result": "active; positive"}, {"measurement": "mutagenic call", "setting": "Test System: AMES SALMONELLA TYPHIMURIUM, Strain/Indicator: YG7108, Metabolic Activation: S-9, Method: PREINCUBATION", "result": "active; positive"}, {"measurement": "mutagenic call", "setting": "Test System: AMES SALMONELLA TYPHIMURIUM, Strain/Indicator: YG7108ER, Metabolic Activation: NONE, Method: STANDARD PLATE", "result": "active; positive"}, {"measurement": "mutagenic call", "setting": "Test System: AMES SALMONELLA TYPHIMURIUM, Strain/Indicator: YG7112, Metabolic Activation: S-9, Method: PREINCUBATION", "result": "active; positive"}, {"measurement": "mutagenic call", "setting": "Test System: AMES SALMONELLA TYPHIMURIUM, Strain/Indicator: YG7113, Metabolic Activation: S-9, Method: PREINCUBATION", "result": "active; positive"}, {"measurement": "mutagenic call", "setting": "Test System: AMES SALMONELLA TYPHIMURIUM, Strain/Indicator: YG7119, Metabolic Activation: S-9, Method: PREINCUBATION", "result": "inactive; negative"}, {"measurement": "mutagenic call", "setting": "Test System: Ames Salmonella typhimurium, Strain/Indicator: TA98, Metabolic Activation: None, Method: Preincubation", "result": "active; positive"}, {"measurement": "mutagenic call", "setting": "Test System: Ames Salmonella typhimurium, Strain/Indicator: TA98, Metabolic Activation: Rat, Liver, S-9, Aroclor 1254 (4%), Method: Preincubation", "result": "active; positive"}, {"measurement": "mutagenic call", "setting": "Test System: Ames Salmonella typhimurium, Strain/Indicator: TA98DNP6 (Acetyltransferase deficient), Metabolic Activation: None, Method: Preincubation", "result": "inactive; negative"}, {"measurement": "mutagenic call", "setting": "Test System: Ames Salmonella typhimurium, Strain/Indicator: TA98DNP6 (Acetyltransferase deficient), Metabolic Activation: Rat, Liver, S-9, Aroclor 1254 (4%), Method: Preincubation", "result": "inactive; negative"}, {"measurement": "mutagenic call", "setting": "Test System: Ames Salmonella typhimurium, Strain/Indicator: TA98NR, Metabolic Activation: None, Method: Preincubation", "result": "inactive; negative"}, {"measurement": "mutagenic call", "setting": "Test System: Ames Salmonella typhimurium, Strain/Indicator: TA98NR, Metabolic Activation: Rat, Liver, S-9, Aroclor 1254 (4%), Method: Preincubation", "result": "inactive; negative"}, {"measurement": "mutagenic call", "setting": "Test System: Ames Salmonella typhimurium, Strain/Indicator: YG1021, Metabolic Activation: None, Method: Preincubation", "result": "inactive; negative"}, {"measurement": "mutagenic call", "setting": "Test System: Ames Salmonella typhimurium, Strain/Indicator: YG1021, Metabolic Activation: Rat, Liver, S-9, Aroclor 1254 (4%), Method: Preincubation", "result": "inactive; negative"}, {"measurement": "mutagenic call", "setting": "Test System: Ames Salmonella typhimurium, Strain/Indicator: YG1024 (Acetyltransferase overproducing), Metabolic Activation: None, Method: Preincubation", "result": "inactive; negative"}, {"measurement": "mutagenic call", "setting": "Test System: Ames Salmonella typhimurium, Strain/Indicator: YG1024 (Acetyltransferase overproducing), Metabolic Activation: Rat, Liver, S-9, Aroclor 1254 (4%), Method: Preincubation", "result": "active; positive"}, {"measurement": "mutagenic call", "setting": "Test System: Ames Salmonella typhimurium, Strain/Indicator: YG1041 (Acetyltransferase and nitroreductase overproducing), Metabolic Activation: None, Method: Preincubation", "result": "inactive; negative"}, {"measurement": "mutagenic call", "setting": "Test System: Ames Salmonella typhimurium, Strain/Indicator: YG1041 (Acetyltransferase and nitroreductase overproducing), Metabolic Activation: Rat, Liver, S-9, Aroclor 1254 (4%), Method: Preincubation", "result": "inactive; negative"}, {"measurement": "mutagenic call", "setting": "Test System: Ames Salmonella typhimurium, Strain/Indicator: YG7108pin3ERb5, Metabolic Activation: None, Method: Standard plate", "result": "active; positive"}, {"measurement": "mutagenic call", "setting": "Test System: CHINESE HAMSTER V-79, Strain/Indicator: V-79 (HPRT)/6-THIOGUANINE, Metabolic Activation: RAT, HEPATOCYTES", "result": "active; positive"}, {"measurement": "mutagenic call", "setting": "Test System: CHINESE HAMSTER V-79, Strain/Indicator: V-79 (HPRT)/6-THIOGUANINE, Metabolic Activation: RAT, HEPATOMA, H4IIE CELLS", "result": "inactive; negative"}, {"measurement": "mutagenic call", "setting": "Test System: CHINESE HAMSTER V-79, Strain/Indicator: V-79 (HPRT)/6-THIOGUANINE, Metabolic Activation: RAT, LIVER, S-9, AROCLOR 1254", "result": "active; positive"}, {"measurement": "mutagenic call", "setting": "Test System: CHINESE HAMSTER V-79, Strain/Indicator: V-79/8-AZAGUANINE, Metabolic Activation: RAT, LIVER, S-15, PHENOBARBITAL, Method: STANDARD PLATE", "result": "active; positive"}, {"measurement": "mutagenic call", "setting": "Test System: CHINESE HAMSTER V-79, Strain/Indicator: V-79/OUABAIN, Metabolic Activation: CELL-MEDIATED, Method: STANDARD PLATE", "result": "active; positive"}, {"measurement": "mutagenic call", "setting": "Test System: CHINESE HAMSTER V-79, Strain/Indicator: V-79/OUABAIN, Metabolic Activation: HAMSTER, HEPATOCYTES, Method: CELL-MEDIATED", "result": "active; positive"}, {"measurement": "mutagenic call", "setting": "Test System: E. COLI, Strain/Indicator: WP2 (HCR-), Metabolic Activation: RAT, LIVER, MICROSOMES, PHENOBARBITAL", "result": "active; positive"}, {"measurement": "mutagenic call", "setting": "Test System: E. COLI, Strain/Indicator: WP2 UVRA, Metabolic Activation: HAMSTER, LIVER, S-9, AROCLOR 1254, Method: PREINCUBATION", "result": "active; positive"}, {"measurement": "mutagenic call", "setting": "Test System: E. COLI, Strain/Indicator: WP2 UVRA, Metabolic Activation: HAMSTER, LIVER, S-9, AROCLOR 1254, Method: STANDARD PLATE", "result": "inactive; negative"}, {"measurement": "mutagenic call", "setting": "Test System: E. COLI, Strain/Indicator: WP2 UVRA, Metabolic Activation: HAMSTER, LIVER, S-9, Method: PREINCUBATION", "result": "active; positive"}, {"measurement": "mutagenic call", "setting": "Test System: E. COLI, Strain/Indicator: WP2 UVRA, Metabolic Activation: HAMSTER, LIVER, S-9, Method: STANDARD PLATE", "result": "inactive; negative"}, {"measurement": "mutagenic call", "setting": "Test System: E. COLI, Strain/Indicator: WP2 UVRA, Metabolic Activation: MOUSE, LIVER, S-9, AROCLOR 1254, Method: STANDARD PLATE", "result": "inactive; negative"}, {"measurement": "mutagenic call", "setting": "Test System: E. COLI, Strain/Indicator: WP2 UVRA, Metabolic Activation: MOUSE, LIVER, S-9, Method: STANDARD PLATE", "result": "inactive; negative"}, {"measurement": "mutagenic call", "setting": "Test System: E. COLI, Strain/Indicator: WP2 UVRA, Metabolic Activation: NONE, Method: STANDARD PLATE", "result": "inactive; negative"}, {"measurement": "mutagenic call", "setting": "Test System: E. COLI, Strain/Indicator: WP2 UVRA, Metabolic Activation: RAT, LIVER, S-9, Method: PREINCUBATION", "result": "inactive; negative"}, {"measurement": "mutagenic call", "setting": "Test System: E. COLI, Strain/Indicator: WP2 UVRA, Metabolic Activation: RAT, LIVER, S-9, Method: STANDARD PLATE", "result": "inactive; negative"}, {"measurement": "mutagenic call", "setting": "Test System: MOUSE LYMPHOMA, Strain/Indicator: L5178Y (TK+/TK-), Metabolic Activation: RAT, LIVER, S-9, AROCLOR 1254, Method: SUSPENSION/PLATE", "result": "active; positive"}, {"measurement": "mutagenic call", "setting": "Test System: UDS RAT HEPATOCYTES, Strain/Indicator: THY INCORP, Metabolic Activation: NONE, Method: LIQUID SCINTILLATION COUNTING", "result": "active; positive"}, {"measurement": "mutagenic call", "setting": "Test System: UDS RODENT HEPATOCYTES, Strain/Indicator: THY INCORP (NON-S-PHASE), Method: AUTORADIOGRAPHY", "result": "active; positive"}]}
